# Tests used:
# [1] = Lipophilicity, shake flask 1-octanol/water partition; assay type: physicochemical
# Procedure: Peptides hydrophobicity was determined using the shake flask method and 1-octanol/water partition coefficient (log Po/w) was determined. […] Peptide concentration (area) in both phases (1-octanol and water) were analyzed by RP-HPLC. The final log Po/w value was calculated by dividing the concentration (C) of the peptide in the two phases as presented by the area under the peak (partition coefficients=C1-octanol/Cwater).
# [2] = biological target: T1, AMY3 receptor (Homo sapiens, UniProt O60896+P30988); test: Inhibition of hAmylin-evoked cAMP in AMY3-expressing HEK293 cells; assay type: cell-based; details: AMY3-HEK cells
# T1 construct: expressed in transfected cells; AMY3-293 / AMY3-HEK)
# T1 sequence (P30988 25-474): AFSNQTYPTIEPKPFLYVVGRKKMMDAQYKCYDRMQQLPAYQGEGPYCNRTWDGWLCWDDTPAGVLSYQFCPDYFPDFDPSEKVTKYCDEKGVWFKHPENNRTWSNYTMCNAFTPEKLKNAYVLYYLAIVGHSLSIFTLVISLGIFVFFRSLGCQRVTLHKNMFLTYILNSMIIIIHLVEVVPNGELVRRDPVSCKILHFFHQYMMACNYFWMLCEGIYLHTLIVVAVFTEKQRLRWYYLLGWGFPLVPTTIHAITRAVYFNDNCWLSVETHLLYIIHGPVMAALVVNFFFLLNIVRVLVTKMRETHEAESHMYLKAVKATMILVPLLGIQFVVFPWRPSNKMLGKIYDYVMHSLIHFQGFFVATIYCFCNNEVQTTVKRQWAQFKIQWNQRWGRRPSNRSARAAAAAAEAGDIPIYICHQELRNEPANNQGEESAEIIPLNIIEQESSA
# T1 sequence (O60896 24-148 partner): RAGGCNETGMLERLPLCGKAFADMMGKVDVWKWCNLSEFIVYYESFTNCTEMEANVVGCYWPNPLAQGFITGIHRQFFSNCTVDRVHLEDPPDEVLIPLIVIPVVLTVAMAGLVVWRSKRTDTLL
# Procedure: a) To investigate peptides amylin receptor affinity, GFP-positive HEK293 cells that stably expressed AMY3 receptor (AMY3-293) as previously reported (Fu et al., 2012) were used. For control, GFP-positive HEK293 wild type cells were used. HEK293 cells were cultured in DMEM (Invitrogen) with 10% FBS (Invitrogen) and grown at 37° C., 5% C02. For cAMP measurements, AMY3-293 cells were plated on 24-well plates overnight. Cells were stimulated for 30 minutes with hAmylin over a concentration range (1 pM-10 μM). Cellular cAMP levels were measured using a parameter cyclic AMP assay kit (R&D Systems) according to the manufacturer's instructions. For in-cell Western blot cAMP quantification, mouse monoclonal anti-cAMP (R&D Systems) was used as a primary antibody, and IRDye 800 goat anti mouse antibody (LI-COR) was used as a secondary antibody. Plates were imaged using an Odyssey Infrared Imaging System (LI-COR), and the integrated intensity was normalized to the total cell number on the same well. Data was plotted, and non-linear regression was fitted with four parameters using Prism software (GraphPad Software, La Jolla, Calif.).
# e) For cAMP measurements, AMY3-293 cells were plated on 24-well plates overnight. […] Cellular cAMP levels were measured using a parameter cyclic AMP assay kit (R&D Systems) according to the manufacturer's instructions. […]
# [3] = system: TgCRND8 AD mouse model; test: T-maze alternation, chronic icv infusion of AC253; assay type: in vivo; details: TgCRND8 mice receiving icv AC253 vs other groups
# Procedure: Age-matched, wild-type littermate (C57BL/6 background) male or female mice were used. […] Heterozygous CTR (het CTR) mice (C57BL/6J background) with a 50% deletion of CTR were obtained from Drs. R. A. Davey and J. D. Zajac (Department of Medicine, Austin Health, University of Melbourne, Heidelberg, Victoria, Australia). Mice were housed individually under standard laboratory conditions (12/12-h light/dark cycle, lights on at 0600 h) with a room temperature of 21° C. Water and food were available ad libitum unless otherwise indicated. All tests were performed during the light phase between 0900 and 1600 h in accordance with institutional guidelines. The mice were 3 months old at the onset of testing.
# A microcannula was stereotaxically inserted into the right cerebral ventricle (0.12 right lateral and 0.06 posterior to bregma, 3 mm deep) of isofluorane-anesthetized mice, and connected to an osmotic pump (Alzet; model 2004) implanted subcutaneously on the back of the mouse. The pump infused a solution of either aCSF or AC253 in aCSF into the ventricle at a rate of […] to yield an estimated concentration of 1 μM AC253 in the mouse CSF at equilibrium based upon the known CSF dynamics in the mouse brain (Di Pardo et al., 2012). […] Animals were monitored on a daily basis for signs of treatment-related toxicity, such as poor grooming, lethargy, loss of bodyweight, and abnormal behavior. […]
structure (smiles),measurement,setting,value
CC(C)C[C@H](NC(=O)[C@H](CCCNC(=N)N)NC(=O)CNC(=O)[C@@H](N)CC(C)C)C(=O)N[C@@H](CO)C(=O)N[C@@H](CCC(N)=O)C(=O)N[C@@H](CCC(=O)O)C(=O)N[C@@H](CC(C)C)C(=O)N[C@@H](Cc1c[nH]cn1)C(=O)N[C@@H](CCCNC(=N)N)C(=O)N[C@@H](CC(C)C)C(=O)N[C@@H](CCC(N)=O)C(=O)N[C@H](C(=O)N[C@@H](Cc1ccc(O)cc1)C(=O)N1CCC[C@H]1C(=O)N[C@@H](CCCNC(=N)N)C(=O)N[C@H](C(=O)N[C@@H](CC(N)=O)C(=O)N[C@H](C(=O)NCC(=O)N[C@@H](CO)C(=O)N[C@@H](CC(N)=O)C(=O)N[C@H](C(=O)N[C@@H](Cc1ccc(O)cc1)C(N)=O)[C@@H](C)O)[C@@H](C)O)[C@@H](C)O)[C@@H](C)O [AC253],Partition coefficient,[1],1.05
same,logP,[1],-1.2
same,block of hAmylin evoked cAMP increase,[2],blocked the hAmylin evoked cAMP increase in a dose-dependent manner
same,"T-maze, identification of the food arm",[3],correctly identified the food arm of the maze

# From US10766940B2, “Brain penetrant amylin receptor based peptides for Alzheimer's disease” (The Governors of the University of Alberta, priority 2016, dated 2020)
